pIC50: −log10 of the molar value. Like-named read-outs stand apart in the source and are kept apart here.
Biological target: T1, human type 1 glycine transporter (GlyT1) (Homo sapiens, UniProt P48067)
T1 construct: T98G cells (glioma cells) expressing human type 1 glycine transporter (GlyT1) were used; endogenous in cells; host or cells: T98G cells (human glioma cells)
T1 sequence (P48067 1-706): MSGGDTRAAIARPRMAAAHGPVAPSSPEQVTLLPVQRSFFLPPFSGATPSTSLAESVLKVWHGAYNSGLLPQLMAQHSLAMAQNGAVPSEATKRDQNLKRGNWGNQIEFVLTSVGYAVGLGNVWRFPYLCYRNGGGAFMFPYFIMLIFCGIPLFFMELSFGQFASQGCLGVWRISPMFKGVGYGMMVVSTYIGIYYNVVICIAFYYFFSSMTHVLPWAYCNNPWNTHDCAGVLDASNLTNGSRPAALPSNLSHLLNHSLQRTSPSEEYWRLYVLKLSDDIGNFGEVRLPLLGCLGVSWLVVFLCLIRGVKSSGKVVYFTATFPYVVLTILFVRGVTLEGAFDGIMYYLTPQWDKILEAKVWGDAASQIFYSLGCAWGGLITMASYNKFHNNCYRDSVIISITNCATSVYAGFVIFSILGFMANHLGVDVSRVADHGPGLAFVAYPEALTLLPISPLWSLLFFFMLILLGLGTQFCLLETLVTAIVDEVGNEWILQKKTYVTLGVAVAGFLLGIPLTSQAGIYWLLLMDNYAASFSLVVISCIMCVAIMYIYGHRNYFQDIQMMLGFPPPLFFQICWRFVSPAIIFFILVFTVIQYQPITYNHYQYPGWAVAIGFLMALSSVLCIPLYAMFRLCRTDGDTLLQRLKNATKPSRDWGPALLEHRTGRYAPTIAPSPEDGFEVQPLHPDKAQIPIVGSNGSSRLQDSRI
Assay: Glycine uptake inhibition experiment ([3H] glycine uptake in T98G cells expressing GlyT1)
Type: cell-based
In short: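 T98G glioma cells expressing human GlyT1 were pretreated 10 min with compound in HEPES buffer pH 7.4 (0.2% BSA), then incubated with compound plus 250 nM final [3H]glycine for 15 min at room temperature. Intracellular radioactivity was counted after NaOH lysis; 10 μM ALX5407 defined non-specific uptake. IC50 came from 10^−9–10^−5 M curves.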

pIC50 (table section whose head prints (μm))	pIC50	Structure (SMILES)
7.21		C[C@H](O)c1cccc2c1C(F)(F)C(=O)N2Cc1cc(C#N)c(F)cn1 [Compound 262, 2-{(3,3-difluoro-4-[(1S)-1-hydroxyethyl]-2-oxo-2,3-dihydro-1H-indol-1-yl}methyl)-5-fluoropyridine-4-carbonitrile]
	7.85	C[C@H](O)c1ccc(F)c2c1C(F)(F)C(=O)N2Cc1ccnc(C#N)c1 [Compound 277, 4-({3,3,7-trifluoro-4-[(1S)-1-hydroxyethyl]-2-oxo-2,3-dihydro-1H-indol-1-yl}methyl)pyridine-2-carbonitrile]
